Earlier results on 14 compounds are cited in paper PMC6008299, “Impact of race on dose selection of molecular-targeted agents in early-phase oncology trials” (British Journal of Cancer, 2018).

The subject of data set [1] is patients with solid tumours. On the set-up: method as in PMID 15955900. Particulars: recommended phase 2 dose; ref [11]–[44]; cited from earlier work.
The subject of data set [2] is patients with solid tumours. Conditions: dose at which PK is compared; ref not given; cited from earlier work.
Data set [3] relates to patients with solid tumours. On the set-up: method as in PMID 15955900. Particulars: recommended phase 2 dose; ref [11]–[44]; cited from earlier work. This is another data set of the same source.
For data set [4] the following is noted: Asian, at the MTD, ref not given, cited from earlier work.
The conditions of data set [5]: cited from earlier work.
[6] abbreviates: at the MTD, Day 1, ref not given.
Where [7] appears, read: at the MTD, Day 28, ref not given.
Where [8] appears, read: at the MTD, Day 15, ref not given.
[9] abbreviates: at the MTD, Day 8, ref not given.
The mark [10] stands for this setting: at the MTD, Day 23 or 24, ref not given.
The mark [11] stands for this setting: at the MTD, Day 21, ref not given.

Where two headings read alike, the source gives them in different places. Marks after values point to notes of the source that are not given here.

The Tmax is the time from dosing to the highest level. In the case of `CN(C)C/C=C/C(=O)Nc1cc2c(Nc3ccc(F)c(Cl)c3)ncnc2cc1O[C@H]1CCOC1` [Afatinib], the “RP2D (Japan)” value in data set [1] is 50 mg QD. Also, in data set [2], the MTD is 50 mg QD. Besides, the “RP2D (Western)” value in data set [3] is listed as 50 mg QD. The results for the AUC0-24 in data set [4] (Day 1), in data set [4] (Day 28) and in data set [5] (setting [7]) were 539 ng·h/mL, 1010 ng·h/mL and 598 ng·h/mL, respectively. In addition, the T1/2 in data set [4] (Day 1) is 14.8 h; in data set [4] (Day 28) it was 33.5 h; in data set [5] (setting [6]), 21.9 h; in data set [5] (setting [7]), 22.3 h. Besides, the “AUC0-∞” value in data set [5] (Caucasian, at the MTD, Day 1 (footnote *), ref not given) was 762* ng·h/mL. Also, the time to peak (Tmax) in data set [5] (setting [6]) is 5.08 h; in data set [5] (setting [7]), 5.00 h.
As usually defined, the Cmax is the highest concentration seen after dosing. On to `CNC(=O)c1ccccc1Sc1ccc2c(/C=C/c3ccccn3)n[nH]c2c1` [Axitinib], for which the “RP2D (Japan)” value in data set [1] is recorded as 5 mg BID. Also, the MTD in data set [2] is given as 5 mg BID. For the same compound, in data set [3], the “RP2D (Western)” value is 5 mg BID. Moreover, the AUC0-24 in data set [4] (Day 1) was 142 ng·h/mL; in data set [4] (Day 15), 138 ng·h/mL; in data set [5] (setting [6]) it was 188 ng·h/mL; in data set [5] (setting [8]), 258 ng·h/mL. Further, the Cmax is 17.0 ng/mL in data set [4] (Day 1), 21.4 ng/mL in data set [4] (Day 15), 22 ng/mL in data set [5] (setting [6]) and 27 ng/mL in data set [5] (setting [8]). In addition, the T1/2 in data set [4] (Day 1) is listed as 4.8 h; in data set [4] (Day 15), 4.04 h; in data set [5] (setting [6]) it was 2.3 h; in data set [5] (setting [8]), 2.3 h. Besides, the Tmax in data set [4] (Day 1) was 4.10 h; in data set [4] (Day 15) it was 1.37 h; in data set [5] (setting [6]) it was 3.2 h; in data set [5] (setting [8]) it was 2.4 h.
Regarding `Cc1cc(Nc2ncc(Cl)c(Nc3ccccc3S(=O)(=O)C(C)C)n2)c(OC(C)C)cc1C1CCNCC1` [Ceritinib], the “RP2D (Japan)” value in data set [1] is reported as 750 mg QD. For the same compound, in data set [2], the MTD is on record as 750 mg QD. In data set [3], the “RP2D (Western)” value is listed as 750 mg QD. For the same compound, in data set [4] (Day 8), the AUC0-24 is 25700 ng·h/mL, the Cmax is listed as 1220 ng/mL and the Tmax is listed as 6.96 h. Besides, in data set [5] (setting [9]), the AUC0-24 was 16,500±4750 ng·h/mL, the Cmax is 800 ± 205 ng/mL, the T1/2 is recorded as 41 h and the Tmax was 4 to 6 h.
With `C[C@@H](Oc1cc(-c2cnn(C3CCNCC3)c2)cnc1N)c1c(Cl)ccc(F)c1Cl` [Crizotonib], the “RP2D (Japan)” value in data set [1] was 250 mg BID. Further, in data set [3], the “RP2D (Western)” value was 250 mg BID.
Consider `C#Cc1cccc(Nc2ncnc3cc(OCCOC)c(OCCOC)cc23)c1` [Erlotinib], for which, in data set [1], the “RP2D (Japan)” value is 150 mg QD. Besides, the MTD in data set [2] is 150 mg QD. Moreover, the “RP2D (Western)” value in data set [3] was 150 mg QD. For the same compound, the Cmax in data set [4] (Day 1) was 958 ± 457.19 ng/mL; in data set [4] (Day 23 or 24), 2384.33 ± 932.43 ng/mL; in data set [5] (setting [6]), 1136 ± 865 ng/mL; in data set [5] (setting [10]), 2120 ± 1520 ng/mL. In addition, the T1/2 in data set [4] (Day 1) was 25.92 ± 9.31 h; in data set [4] (Day 23 or 24), 27.19 ± 9.07 h; in data set [5] (setting [6]), 20 ± 9.74 h; in data set [5] (setting [10]) it was 18.18 ± 5.74 h. Moreover, the Tmax in data set [4] (Day 1) is 6.00 ± 8.92 h; in data set [4] (Day 23 or 24), 1.83 ± 0.41 h. In addition, the AUC0-24 in data set [5] (setting [6]) was 16510 ± 11020 ng·h/mL; in data set [5] (setting [10]), 38420 ± 29550 ng·h/mL.
On to `CO[C@H]1C[C@@H]2CC[C@@H](C)[C@@](O)(O2)C(=O)C(=O)N2CCCC[C@H]2C(=O)O[C@H]([C@H](C)C[C@@H]2CC[C@@H](OCCO)[C@H](OC)C2)CC(=O)[C@H](C)/C=C(\C)[C@@H](O)[C@@H](OC)C(=O)[C@H](C)C[C@H](C)/C=C/C=C/C=C/1C` [Everolimus], for which, in data set [1], the “RP2D (Japan)” value is 10 mg QD.
Consider `CS(=O)(=O)CCNCc1ccc(-c2ccc3ncnc(Nc4ccc(OCc5cccc(F)c5)c(Cl)c4)c3c2)o1` [Lapatinib], for which the “RP2D (Japan)” value in data set [1] is reported as 1500 mg QD. In addition, the “RP2D (Western)” value in data set [3] is recorded as 1250 mg QD.
On to `COc1cc2nccc(Oc3ccc(NC(=O)NC4CC4)c(Cl)c3)c2cc1C(N)=O` [Lenvatinib], for which the AUC0-24 in data set [4] (Day 1) is reported as 3150 ng·h/mL; in data set [4] (Day 15), 4140 ng·h/mL; in data set [5] (setting [6]), 3913.8 ng·h/mL; in data set [5] (setting [7]), 4783.0 ng·h/mL. For the same compound, the Cmax was 418 ng/mL in data set [4] (Day 1), 518 ng/mL in data set [4] (Day 15), 598.0 ng/mL in data set [5] (setting [6]) and 579.1 ng/mL in data set [5] (setting [7]). Moreover, the Tmax was 2.0 h in data set [4] (Day 15), 1.5 h in data set [5] (setting [6]) and 2.8 h in data set [5] (setting [7]). Further, the T1/2 is listed as 5.3 h in data set [5] (setting [6]) and 5.8 h in data set [5] (setting [7]).
In the case of `Cc1ccc(Nc2nccc(N(C)c3ccc4c(C)n(C)nc4c3)n2)cc1S(N)(=O)=O` [Pazopanib], in data set [3], the “RP2D (Western)” value is 800 mg QD.
Regarding `CNC(=O)c1cc(Oc2ccc(NC(=O)Nc3ccc(Cl)c(C(F)(F)F)c3)c(F)c2)ccn1` [Regorafenib], the “RP2D (Japan)” value in data set [1] was 160 mg QD. Besides, the MTD in data set [2] is reported as 160 mg QD. Moreover, the “RP2D (Western)” value in data set [3] is recorded as 160 mg QD. Also, in data set [5] (setting [11]), the AUC0-24 is on record as 58270 ng·h/mL, the Cmax was 3904 ng/mL, the T1/2 is 22.23 h and the Tmax was 5.033 h.
With `CNC(=O)c1cc(Oc2ccc(NC(=O)Nc3ccc(Cl)c(C(F)(F)F)c3)cc2)ccn1` [Sorafenib], the “RP2D (Japan)” value in data set [1] was 400 mg BID. In data set [3], the “RP2D (Western)” value was 400 mg BID.
As for `CCN(CC)CCNC(=O)c1c(C)[nH]c(/C=C2\C(=O)Nc3ccc(F)cc32)c1C` [Sunitinib], the “RP2D (Japan)” value in data set [1] is given as 50 mg QD. Besides, the MTD in data set [2] is 50 mg QD. For the same compound, in data set [3], the “RP2D (Western)” value was 50 mg QD. Moreover, the AUC0-24 is listed as 374 ng·h/mL in data set [4] (Day 1), 1406 ng·h/mL in data set [4] (Day 28), 420 ng·h/mL in data set [5] (setting [6]) and 1296 ng·h/mL in data set [5] (setting [7]). Further, the figures for the Cmax in data set [4] (Day 1) and in data set [4] (Day 28) were 22.8 ng/mL and 69.3 ng/mL, respectively. In addition, the Tmax in data set [4] (Day 1) is listed as 7 h; in data set [4] (Day 28), 6 h; in data set [5] (setting [6]) it was 5.0 h; in data set [5] (setting [7]), 8.5 h.
Turning to `COc1cc2c(Nc3ccc(Br)cc3F)ncnc2cc1OCC1CCN(C)CC1` [Vandetanib], the “RP2D (Japan)” value in data set [1] was 300 mg QD. In data set [3], the “RP2D (Western)” value was 300 mg QD.
As for `CCCS(=O)(=O)Nc1ccc(F)c(C(=O)c2c[nH]c3ncc(-c4ccc(Cl)cc4)cc23)c1F` [Vemurafenib], in data set [1], the “RP2D (Japan)” value was 960 mg BID. The MTD in data set [2] was 960 mg BID. The “RP2D (Western)” value in data set [3] is on record as 960 mg BID. The T1/2 in data set [4] (Day 1) is 12.7 h; in data set [4] (Day 15), 60.8 h; in data set [5] (setting [8]) it was 34.1 h. The Cmax in data set [5] (setting [8]) is recorded as 61400 ng/mL; in data set [5] (in vivo), 4800 ng/mL. For the same compound, the Tmax in data set [5] (in vivo) was 5.0 h.
